Assay results from patent US20030118594A1, “STABLE FORMULATIONS OF MHC-PEPTIDE COMPLEXES” (priority 1995, published 2003).
Like-named read-outs stand apart in the source and are kept apart here.

Assays:
T-cells = test: Toxicity of detergents to T-cells; type: cell-based
Protocol: A number of detergents were studied for their ability to solubilize human HLA-DR2 and MHC-peptide complexes. In addition the complexes prepared in the detergents were assayed for activity. A summary of structural and physical characteristics of various detergents used for solubilization of HLA-DR2 is presented in FIG. 1.

[1] = Aggregation assay by size-exclusion HPLC and SDS-PAGE; type: physicochemical; conditions: DM concentration below 0.05%, FIG. 4, 5
Protocol: Three non-ionic detergents (DM, OG, and Tween-80) were tested. The experiments were carried out as generally described in U.S. Pat. Nos. 5,130,297, 5,194,425, 5,260,422 and 5,284,935, all of which are incorporated herein by reference. Briefly, HLA-DR2 was purified from EBV-transformed lymphoblastoid cells [GM03107] obtained from the National Institute of General Medical Sciences human genetic mutant cell repository (Corinell Institute of Medical Research, NJ.). A triton X-100 cell lysate was prepared and applied to a L243 coupled sepharose-4B column and the bound DR2 was eluted in phosphate buffer containing 0.05% n-dodecyl β-D-maltoside (DM) detergent at pH 11.3. Fractions were immediately neutralized with 20% monobasic phosphate and the DR2 pool was collected through a DEAE ion exchange column in 20 mM phosphate buffer containing 0.5 M NaCl and 0.05% DM, pH 6.0. The flow through purified protein solution from the DEAE column was neutralized with 10% tribasic sodium phosphate, filtered through a 180 kD membrane and concentrated to 1 mg/ml. The final DR2 preparation was characterized by 13.5% SDS polyacrylamide gel electrophoresis followed by silver staining.
To prepare the DR2-peptide complex, purified DR2 was dialyzed against 100 mM citrate buffer pH 6.0 containing 0.05% DM for 24 hours at 4° C. prior to the addition of MBP(83-102)Y^83 peptide. […]

HLA-DR2 = test: Occupancy of MHC molecules with peptide (loading); type: binding, human; conditions: DR2 and MBP(83-102)Y^83 complexes prepared in the named detergent
Protocol: To prepare the DR2-peptide complex, purified DR2 was dialyzed against 100 mM citrate buffer pH 6.0 containing 0.05% DM for 24 hours at 4° C. prior to the addition of MBP(83-102)Y^83 peptide. The reaction mixture was incubated at 37° C. for 96 hours and free peptide was removed by Sephacryl S200 gel filtration.
As noted in the figure, the occupancy of the MHC molecules (i.e., proportion of the molecules complexed with peptide) was 90% in DM, 40% in octylglucoside and 76% in Tween-80).

mouse [2] = test: GLP Toxicology: Acute Range-finding; type: in vivo; conditions: i.v., 400 ug/kg, bolus
Protocol: (§1) Safety and toxicity studies were carried out for the intravenous administration of dodecyl-β-D-maltoside in various animal models.

mouse [3] = test: GLP Toxicology: Subacute - full histo; type: in vivo; conditions: i.v., QD14
Protocol: as §1

mouse [4] = test: Safety Pharmacology: Neuropharm profile; type: in vivo; conditions: i.v., bolus
Protocol: as §1

rat = test: Safety Pharmacology: Diuretic Assay; type: in vivo; conditions: i.v., bolus
Protocol: as §1

mouse [5] = test: Safety Pharmacology: Barbit Sleep Potent; type: in vivo; conditions: i.v., bolus
Protocol: as §1

dog = test: Safety Pharmacology: Cardiovasc Effects; type: in vivo; conditions: i.v.
Protocol: as §1

various animal models = test: Safety and toxicity studies, intravenous administration in various animal models; type: in vivo; conditions: i.v. administration at various tested doses, summary of Table 1
Protocol: as §1

## C[C@H](CCC(=O)NCCC[N+](C)(C)CCCS(=O)(=O)[O-])[C@H]1CC[C@H]2[C@@H]3[C@H](O)C[C@@H]4C[C@H](O)CC[C@]4(C)[C@H]3C[C@H](O)[C@]12C [CHAPS]
T-cells; detergents for solubilization of HLA-DR2
  toxicity to T-cells: toxic to T-cells

## CCCCCCCCCCCCO[C@@H]1O[C@H](CO)[C@@H](O[C@H]2O[C@H](CO)[C@@H](O)[C@H](O)[C@H]2O)[C@H](O)[C@H]1O [DM, dodecyl β-D maltoside]
[1]
  aggregation level of DR2: increased aggregation level of DR2
HLA-DR2
  occupancy of the MHC molecules (proportion of the molecules complexed with peptide): 90%
Mouse [2]
  Results, Acute Range-finding: poss kindey cortical
Mouse [3]; 4 ug/kg
  Results, Subacute - full histo: No Eff @ necr/clin-path
Mouse [3]; 40 ug/kg
  Results, Subacute - full histo: No Effects
Mouse [3]; 400 ug/kg
  Results, Subacute - full histo: D14 Spleen wt slightly
Mouse [4]; 10 ug/kg
  Results, Neuropharm profile: No Effects
Mouse [4]; 100 ug/kg
  Results, Neuropharm profile: No Effects
rat; 10 ug/kg
  Results, Diuretic Assay: No Effects
rat; 100 ug/kg
  Results, Diuretic Assay: No Effects
Mouse [5]; 10 ug/kg
  Results, Barbit Sleep Potent: No Effects
Mouse [5]; 100 ug/kg
  Results, Barbit Sleep Potent: No Effects
dog; 10 ug/kg, bolus
  Results, Cardiovasc Effects: No Effects
dog; up if NOEL to 100 ug/kg
  Results, Cardiovasc Effects: No Effects
Various animal models
  toxic effects: no toxic effects

## CCCCCCCC/C=C\CCCCCCCC(=O)OCCOCC(OCCO)C1OCC(OCCO)C1OCCO (stereo not shown) [Tween-80]
HLA-DR2
  occupancy of the MHC molecules (proportion of the molecules complexed with peptide): 76%

## CCCCCCCCO[C@@H]1O[C@H](CO)[C@@H](O)[C@H](O)[C@H]1O [octylglucoside, octyl glucoside]
HLA-DR2
  occupancy of the MHC molecules (proportion of the molecules complexed with peptide): 40%

## Pluronic F-127
T-cells
  toxicity to T-cells: toxic to T-cells
